Laboratory results taken from patent publication US20140102978A1, “Composition and Method for Remediation of Contaminated Water” (JRW BIOREMEDIATION LLC, priority 2012, published 2014).

Assay: Thiosulfate/Gluconate physical compatibility screening
Type: physicochemical
Settings: heated to no more than 115° F, visual and olfactory
Text: The final solution was stored at room temperature for 15 days and then examined to determine relative storage stability.

Measured: Observation

ferrous gluconate
Mild odor, dissolved when warmed: 1 g ferrous gluconate (Mole % 4%) added to 25 g sodium thiosulfate | 2 g ferrous gluconate (Mole % 7%) added to 25 g sodium thiosulfate
Mod odor, dissolved when warmed: 3 g ferrous gluconate (Mole % 11%) added to 25 g sodium thiosulfate | 4.5 g ferrous gluconate (Mole % 16%) added to 25 g sodium thiosulfate | 5 g ferrous gluconate (Mole % 19%) added to 25 g sodium thiosulfate | 6 g ferrous gluconate (Mole % 22%) added to 25 g sodium thiosulfate | 7 g ferrous gluconate (Mole % 26%) added to 25 g sodium thiosulfate | 8 g ferrous gluconate (Mole % 30%) added to 25 g sodium thiosulfate | 9 g ferrous gluconate (Mole % 33%) added to 25 g sodium thiosulfate | 10 g ferrous gluconate (Mole % 37%) added to 25 g sodium thiosulfate | 14 g ferrous gluconate (Mole % 52%) added to 25 g sodium thiosulfate
